This test deals with A375 melanoma cells (B-Raf V600E mutation). The test can be described thus: A375 (A375_P-ERK) cell activity / cell growth inhibition assay. The note with it: Homo sapiens, A-375; A375 cells (text: A375_P-ERK). It counts as cell-based, human. How it is done:
Compounds are assessed in a variety of cell based assays. For example human cell lines with B-RafV600E mutation (A375 melanoma, SKMEL3 melanoma, and COLO205 colon adenocarcinoma), as well as tumorigenic cell lines with wild-type B-RAF (SW620 colon adenocarcinoma) or with Ras mutations (SKMEL2 melanoma and IPC298 melanoma).
On day 1, cells are counted, then centrifuged in a conical tube for 5 minutes at 1000 rpm.
On day 2, compound at a maximum concentration of 5 mM is serially diluted 1:3 (e.g. 10 μL with 30 μL dimethyl sulfoxide) for a total of 8 point titration with DMSO as a control. A 1 μL aliquot of each dilution point and control is added to 249 μL growth media and 50 μL is added to a well containing cells, providing 10 μM compound at the maximum concentration point. The cells are incubated for 3 days at 37° C. in 5% CO2.
ATPlite is added 25 μL to each well, shake for 2 minutes, and the cells are incubated at room temperature for 10 minutes, then luminescence is read on Safire reader. The measured luminescence correlates directly with cell number, such that the reading as a function of compound concentration is used to determine the IC50 value.
As usually defined, the IC50 is the point on the concentration scale where inhibition reaches its midpoint. A high value points to a need for much substance. `CCN(C)S(=O)(=O)Nc1ccc(F)c(C(=O)c2c[nH]c3ncc(Cl)cc23)c1F` [P-0012, 5-chloro-3-[3-[[ethyl(methyl)sulfamoyl]amino]-2,6-difluoro-benzoyl]-1H-pyrrolo[2,3-b]pyridine] gave an IC50 of under 1 µM.
In turn, `CCN(C)S(=O)(=O)Nc1ccc(F)c(C(=O)c2c[nH]c3ncc(-c4cnc(OC)nc4)cc23)c1F` [P-0014] yielded an IC50 of under 1 µM.
For `O=C(c1c(F)ccc(NS(=O)(=O)N2CCCC2)c1F)c1c[nH]c2ncc(F)c(NCC3CC3)c12` [P-0016, N-[3-[4-(cyclopropylmethylamino)-5-fluoro-1H-pyrrolo[2,3-b]pyridine-3-carbonyl]-2,4-difluoro-phenyl]pyrrolidine-1-sulfonamide] the value was under 1 µM; for `CCN(C)S(=O)(=O)Nc1ccc(F)c(C(=O)c2c[nH]c3ncc(C#N)cc23)c1F` [P-0017, 5-cyano-3-[3-[[ethyl(methyl)sulfamoyl]amino]-2,6-difluoro-benzoyl]-1H-pyrrolo[2,3-b]pyridine], under 1 µM; for `CCN(C)S(=O)(=O)Nc1cccc(C(=O)c2c[nH]c3ncc(Cl)cc23)c1F` [P-0018, 5-chloro-3-[3-[[ethyl(methyl)sulfamoyl]amino]-2-fluoro-benzoyl]-1H-pyrrolo[2,3-b]pyridine], under 1 µM.
With `CCN(C)S(=O)(=O)Nc1cccc(C(=O)c2c[nH]c3ncc(-c4ccc(Cl)cc4)cc23)c1F` [P-0019], the IC50 was under 1 µM.
On to `CCN(C)S(=O)(=O)Nc1cccc(C(=O)c2c[nH]c3ncc(-c4cnc(OC)nc4)cc23)c1F` [P-0020], for which the IC50 was under 1 µM.
In the case of `Cc1cnc2[nH]cc(C(=O)c3cccc(NS(=O)(=O)N4CCCC4)c3F)c2c1` [P-0023, N-[2-fluoro-3-(5-methyl-1H-pyrrolo[2,3-b]pyridine-3-carbonyl)phenyl]pyrrolidine-1-sulfonamide], the IC50 is under 1 µM.
Compound `COc1ncc(-c2cnc3[nH]cc(C(=O)c4cccc(NS(=O)(=O)N(C)C5CC5)c4F)c3c2)cn1` [P-0025] gave a concentration for half-maximal inhibition (IC50) of under 1 µM.
In the case of `CNS(=O)(=O)Nc1cccc(C(=O)c2c[nH]c3ncc(-c4cnc(OC)nc4)cc23)c1F` [P-0026], the IC50 was over 1 µM.
As for `CCN(C)S(=O)(=O)Nc1cccc(C(=O)c2c[nH]c3ncc(-c4ccc(C)nc4)cc23)c1F` [P-0033], the figure is under 1 µM; as for `CCN(C)S(=O)(=O)Nc1cccc(C(=O)c2c[nH]c3ncc(-c4ccc(F)cc4)cc23)c1F` [P-0034], under 1 µM.
Take `CN(C)S(=O)(=O)Nc1cccc(C(=O)c2c[nH]c3ncc(-c4ccc(F)cc4)cc23)c1F` [P-0035]: the IC50 is under 1 µM.
As for `CCN(C)S(=O)(=O)Nc1cccc(C(=O)c2c[nH]c3ncc(Br)cc23)c1F` [P-0038, 5-bromo-3-[3-[[ethyl(methyl)sulfamoyl]amino]-2-fluoro-benzoyl]-1H-pyrrolo[2,3-b]pyridine], the IC50 was under 1 µM.
In turn, `CCN(C)S(=O)(=O)Nc1cccc(C(=O)c2c[nH]c3ncc(C#N)cc23)c1F` [P-0039, 5-cyano-3-[3-[[ethyl(methyl)sulfamoyl]amino]-2-fluoro-benzoyl]-1H-pyrrolo[2,3-b]pyridine] registered an IC50 of under 1 µM.
Consider `CCCN(C)S(=O)(=O)Nc1cccc(C(=O)c2c[nH]c3ncc(-c4cnc(OC)nc4)cc23)c1F` [P-0040, 3-[2-fluoro-3-[[methyl(propyl)sulfamoyl]amino]benzoyl]-5-(2-methoxypyrimidin-5-yl)-1H-pyrrolo[2,3-b]pyridine], for which the IC50 is under 1 µM.
`Cn1cc(-c2cnc3[nH]cc(C(=O)c4cccc(NS(=O)(=O)CC5CC5)c4F)c3c2)cn1` [P-0042, 1-cyclopropyl-N-[2-fluoro-3-[5-(1-methylpyrazol-4-yl)-1H-pyrrolo[2,3-b]pyridine-3-carbonyl]phenyl]methanesulfonamide] had an IC50 of under 1 µM.
For `O=C(c1cccc(NS(=O)(=O)N2CCCC2)c1F)c1c[nH]c2ncc(-c3cccnc3)cc12` [P-0043, N-[2-fluoro-3-[5-(3-pyridyl)-1H-pyrrolo[2,3-b]pyridine-3-carbonyl]phenyl]pyrrolidine-1-sulfonamide] the value was under 1 µM; for `COc1ncc(-c2cnc3[nH]cc(C(=O)c4cccc(NS(=O)(=O)N5CCCC5)c4F)c3c2)c(OC)n1` [P-0044, N-[3-[5-(2,4-dimethoxypyrimidin-5-yl)-1H-pyrrolo[2,3-b]pyridine-3-carbonyl]-2-fluoro-phenyl]pyrrolidine-1-sulfonamide], under 1 µM.
Consider `Cc1ccc(-c2cnc3[nH]cc(C(=O)c4cccc(NS(=O)(=O)N5CCCC5)c4F)c3c2)cn1` [P-0045, N-[2-fluoro-3-[5-(6-methyl-3-pyridyl)-1H-pyrrolo[2,3-b]pyridine-3-carbonyl]phenyl]pyrrolidine-1-sulfonamide], for which the IC50 is under 1 µM.
For `CC(C)c1ncc(-c2cnc3[nH]cc(C(=O)c4cccc(NS(=O)(=O)N5CCCC5)c4F)c3c2)cn1` [P-0047, N-[2-fluoro-3-[5-(2-isopropylpyrimidin-5-yl)-1H-pyrrolo[2,3-b]pyridine-3-carbonyl]phenyl]pyrrolidine-1-sulfonamide] the value was under 1 µM; for `COc1cc(-c2cnc3[nH]cc(C(=O)c4cccc(NS(=O)(=O)N5CCCC5)c4F)c3c2)ccc1C#N` [P-0049, N-[3-[5-(4-cyano-3-methoxy-phenyl)-1H-pyrrolo[2,3-b]pyridine-3-carbonyl]-2-fluoro-phenyl]pyrrolidine-1-sulfonamide], under 1 µM.
Compound `N#CC1(c2ccc(-c3cnc4[nH]cc(C(=O)c5cccc(NS(=O)(=O)N6CCCC6)c5F)c4c3)cc2)CC1` [P-0050, N-[3-[5-[4-(1-cyanocyclopropyl)phenyl]-1H-pyrrolo[2,3-b]pyridine-3-carbonyl]-2-fluoro-phenyl]pyrrolidine-1-sulfonamide] showed an IC50 of under 1 µM.
The compound `CC(C)c1ncc(-c2cnc3[nH]cc(C(=O)c4cccc(NS(=O)(=O)N(C)C)c4F)c3c2)cn1` [P-0051, 3-[3-(dimethylsulfamoylamino)-2-fluoro-benzoyl]-5-(2-isopropylpyrimidin-5-yl)-1H-pyrrolo[2,3-b]pyridine] came in with an IC50 of under 1 µM.
`CN(C)S(=O)(=O)Nc1cccc(C(=O)c2c[nH]c3ncc(-c4cnc(C5CC5)nc4)cc23)c1F` [P-0052, 5-(2-cyclopropylpyrimidin-5-yl)-3-[3-(dimethylsulfamoylamino)-2-fluoro-benzoyl]-1H-pyrrolo[2,3-b]pyridine]: the IC50 is under 1 µM.
Take `CN(C)S(=O)(=O)Nc1cccc(C(=O)c2c[nH]c3ncc(-c4ccc(C(F)(F)F)nc4)cc23)c1F` [P-0053, 3-[3-(dimethylsulfamoylamino)-2-fluoro-benzoyl]-5-[6-(trifluoromethyl)-3-pyridyl]-1H-pyrrolo[2,3-b]pyridine]: the IC50 was under 1 µM.
Turning to `COc1cc(-c2cnc3[nH]cc(C(=O)c4cccc(NS(=O)(=O)N(C)C)c4F)c3c2)ccc1C#N` [P-0054, 5-(4-cyano-3-methoxy-phenyl)-3-[3-(dimethylsulfamoylamino)-2-fluoro-benzoyl]-1H-pyrrolo[2,3-b]pyridine], the IC50 was under 1 µM.
Compound `CN(C)S(=O)(=O)Nc1cccc(C(=O)c2c[nH]c3ncc(-c4ccc(C5(C#N)CC5)cc4)cc23)c1F` [P-0055, 5-[4-(1-cyanocyclopropyl)phenyl]-3-[3-(dimethylsulfamoylamino)-2-fluoro-benzoyl]-1H-pyrrolo[2,3-b]pyridine] came in with an IC50 of under 1 µM.
With `CCN(C)S(=O)(=O)Nc1cccc(C(=O)c2c[nH]c3ncc(-c4cnc(C)nc4)cc23)c1F` [P-0056, 3-[3-[[ethyl(methyl)sulfamoyl]amino]-2-fluoro-benzoyl]-5-(2-methylpyrimidin-5-yl)-1H-pyrrolo[2,3-b]pyridine], the IC50 is under 1 µM.
As for `CCN(C)S(=O)(=O)Nc1cccc(C(=O)c2c[nH]c3ncc(-c4cnc(C(C)C)nc4)cc23)c1F` [P-0057, 3-[3-[[ethyl(methyl)sulfamoyl]amino]-2-fluoro-benzoyl]-5-(2-isopropylpyrimidin-5-yl)-1H-pyrrolo[2,3-b]pyridine], the figure is under 1 µM; as for `CCN(C)S(=O)(=O)Nc1cccc(C(=O)c2c[nH]c3ncc(-c4cnc(C5CC5)nc4)cc23)c1F` [P-0058], under 1 µM.
Take `CCN(C)S(=O)(=O)Nc1cccc(C(=O)c2c[nH]c3ncc(-c4ccc(C(F)(F)F)nc4)cc23)c1F` [P-0059, 3-[3-[[ethyl(methyl)sulfamoyl]amino]-2-fluoro-benzoyl]-5-[6-(trifluoromethyl)-3-pyridyl]-1H-pyrrolo[2,3-b]pyridine]: the half-inhibitory concentration (IC50) is under 1 µM.
Compound `CCN(C)S(=O)(=O)Nc1cccc(C(=O)c2c[nH]c3ncc(-c4ccc(C#N)c(OC)c4)cc23)c1F` [P-0060, 5-(4-cyano-3-methoxy-phenyl)-3-[3-[[ethyl(methyl)sulfamoyl]amino]-2-fluoro-benzoyl]-1H-pyrrolo[2,3-b]pyridine] gave an IC50 of under 1 µM.
`O=C(c1cccc(NS(=O)(=O)N2CCCC2)c1F)c1c[nH]c2ncc(-c3ccc(F)cc3)cc12` [P-0062, N-[2-fluoro-3-[5-(4-fluorophenyl)-1H-pyrrolo[2,3-b]pyridine-3-carbonyl]phenyl]pyrrolidine-1-sulfonamide] returned an IC50 of under 1 µM.
As for `O=C(c1cccc(NS(=O)(=O)N2CCCC2)c1F)c1c[nH]c2ncc(-c3ccccc3)cc12` [P-0063, N-[2-fluoro-3-(5-phenyl-1H-pyrrolo[2,3-b]pyridine-3-carbonyl)phenyl]pyrrolidine-1-sulfonamide], the figure is under 1 µM.
